From patent US20100086513A1, “Method for Effecting Antimicrobial Activity Using Polyamine Analogues” (priority 2008, published 2010)
Values after ≈ are worked out from the molar mass of the structure shown.

What was measured:
[1] = system: E. coli K12 cells + pBR322; type: cell-based, Escherichia coli
[2] = system: Y. pestis KIM6+; type: cell-based, Yersinia pestis
[3] = system: E. coli K12; type: cell-based, Escherichia coli
[4] = system: Y. pestis KIM6+; type: cell-based, Yersinia pestis; remark: listed apart in the source

CC[C@H](C)[C@H](NC(=O)CN)C(=O)NCC(=O)N[C@@H](C)C(=O)N[C@H](C(=O)N[C@@H](CC(C)C)C(=O)N[C@@H](CCCCN)C(=O)N[C@H](C(=O)N[C@@H](CC(C)C)C(=O)N[C@H](C(=O)N[C@H](C(=O)NCC(=O)N[C@@H](CC(C)C)C(=O)N1CCC[C@H]1C(=O)N[C@@H](C)C(=O)N[C@@H](CC(C)C)C(=O)N[C@H](C(=O)N[C@@H](CO)C(=O)N[C@@H](Cc1c[nH]c2ccccc12)C(=O)N[C@H](C(=O)N[C@@H](CCCCN)C(=O)N[C@@H](CCCNC(=N)N)C(=O)N[C@@H](CCCCN)C(=O)N[C@@H](CCCNC(=N)N)C(=O)N[C@@H](CCC(N)=O)C(=O)N[C@@H](CCC(N)=O)C(N)=O)[C@@H](C)CC)[C@@H](C)CC)[C@@H](C)O)[C@@H](C)O)C(C)C)C(C)C [mellitin]
release of β-lactamase (Nitrocefin absorption at 486 nm) [1]: a reaction of Nitrocefin to β-lactamase occurs almost immediately

NCCCCNCCCN [spermidine]
transport of [14C] spermidine [2]: effectively unable to transport | transport of [14C] spermidine [3]: able to transport a significant amount

NCCCCN [putrescine]
uptake of [14C] putrescine [2]: ability to transport significant amounts | uptake of [14C] putrescine [3]: ability to transport significant amounts

N=C(NCCCNCCCCCCCNCCCNC(=N)NC(=N)NCCC(c1ccccc1)c1ccccc1)NC(=N)NCCC(c1ccccc1)c1ccccc1 [XBI-54-13B]
MIC [4]: 1.56 µg/mL (≈ 1.95 µM) | release of β-lactamase (Nitrocefin absorption at 486 nm) [1]: quickly causes a release of β-lactamase
